Source: patent US20250375460A1, “STAT DEGRADERS AND USES THEREOF” (Kymera Therapeutics, Inc., priority 2022, published 2025)

Target: T1, STAT3 (Homo sapiens, UniProt P40763)
T1 construct: expressed in transfected cells; host or cells: A549
Assay: STAT3 HiBiT degradation assay in transfected A549 cells
Format: cell-based
Conditions: 24 h compound incubation, Nano-Glo HiBiT lytic detection, read-out: STAT3 HiBiT A549 degradation 24 h: Average external-Abs DC50
Experimental: Compound preparation and Cell seeding: The transfected A549 cells were harvested from dish into cell culture medium and cell numbers counted. Cells were diluted with culture medium to the desired density and 30 μL of cell suspension (about 2000 cells/well) were added into each well of a 384-well cell culture plate as designated and transferred into 37° C. 5% CO2 incubator for 24 h. Compounds were dissolved to 10 mM stock solution and 12 μL of the stock solution was transferred to a 384 LDV-plate. 3 fold, 10-point dilution was performed by transferring 4 μL compound into 8 μL DMSO using a TECAN (EVO200) liquid handler. 30 μL of diluted compound from compound source plate was transferred into the cell plate as designated by using Echo550 and transferred into 37° C. 5% CO2 incubator for 24 h.
Detection: Plates were removed from incubators and equilibrated at room temperature for 15 minutes. Nano-Glo Hibit Lytic Detection reagent (Promega Cat #N3040) was thawed and equilibrated to room temperature before the experiment. 30 μL of Nano-Glo Hibit Lytic Detection reagent was added into each well to be detected. The plates were held at room temperature for 10 min followed by reading on EnSpire.
Data analysis: The remaining activity was calculated following the formula: Remaining Activity(%)=100%×(Lumsample−LumNC)/(LumPC−LumNC). Calculate the IC50 by fitting the curve using Xlfit (v5.3.1.3), equation 201: fit=(A+((B−A)/(1+((x/C)^D)))); A: Bottom; B: Top; C: IC50; and D: Slope.
The letter codes for STAT3 DC50 include: A (<0.001 μM), B (0.001-0.01 μM), C (0.01-0.1 μM), and D (>0.1 μM).

T1 sequence (P40763 whole entry): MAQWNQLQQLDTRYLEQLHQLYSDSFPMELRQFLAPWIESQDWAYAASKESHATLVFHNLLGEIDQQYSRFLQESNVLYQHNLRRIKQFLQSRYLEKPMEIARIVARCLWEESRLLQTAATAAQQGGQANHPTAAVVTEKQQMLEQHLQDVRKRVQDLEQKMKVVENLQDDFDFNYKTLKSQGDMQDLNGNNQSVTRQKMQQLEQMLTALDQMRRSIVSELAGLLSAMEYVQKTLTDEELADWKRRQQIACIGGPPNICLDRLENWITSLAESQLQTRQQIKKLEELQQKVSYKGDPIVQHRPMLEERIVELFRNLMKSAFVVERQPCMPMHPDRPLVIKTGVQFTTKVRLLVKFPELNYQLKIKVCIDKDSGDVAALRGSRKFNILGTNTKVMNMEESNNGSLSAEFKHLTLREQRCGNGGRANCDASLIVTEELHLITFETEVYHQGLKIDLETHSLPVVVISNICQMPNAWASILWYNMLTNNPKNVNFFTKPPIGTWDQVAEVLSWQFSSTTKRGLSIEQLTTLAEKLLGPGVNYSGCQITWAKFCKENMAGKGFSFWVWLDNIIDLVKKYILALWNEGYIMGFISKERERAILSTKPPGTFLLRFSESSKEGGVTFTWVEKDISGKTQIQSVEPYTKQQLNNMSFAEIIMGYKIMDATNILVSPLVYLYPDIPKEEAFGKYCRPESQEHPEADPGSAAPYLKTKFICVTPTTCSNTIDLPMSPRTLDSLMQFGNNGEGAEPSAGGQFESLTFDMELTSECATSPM

SMILES | DC50
C#Cc1ccc([C@H](C)NC(=O)[C@@H]2C[C@@H](O)CN2C(=O)[C@@H](c2cc(OCCCc3cccc(OC[C@H](CCC(N)=O)NC(=O)[C@@H]4CC[C@@H]5CCN(C(C)=O)C[C@H](NC(=O)c6cc7cc(C(=O)P(=O)(O)O)ccc7[nH]6)C(=O)N54)c3C)no2)C(C)C)cc1 [I-10] | 1 to 10 nM
CC(=O)N1CC[C@H]2CC[C@@H](S(=O)(=O)N[C@@H](CCC(N)=O)COc3cccc(CCCC(=O)N[C@H](C(=O)N4C[C@H](O)C[C@H]4C(=O)N[C@@H](C)c4ccc(-c5scnc5C)cc4)C(C)(C)C)c3Cl)N2C(=O)[C@@H](NC(=O)c2cc3cc(C(=O)P(=O)(O)O)ccc3[nH]2)C1 [I-30] | 1 to 10 nM
C#Cc1ccc([C@H](C)NC(=O)[C@@H]2C[C@@H](O)CN2C(=O)[C@H](c2cc(OCCCc3cccc(OC[C@H](CCC(N)=O)NC(=O)[C@@H]4CC[C@@H]5CCN(C(C)=O)C[C@H](NC(=O)c6cc7cc(C(=O)P(=O)(O)O)ccc7[nH]6)C(=O)N54)c3C)no2)C(C)C)cc1 [I-11] | > 100 nM
C#Cc1ccc(CNC(=O)[C@@H]2C[C@@H](O)CN2C(=O)[C@@H](c2cc(OCCCc3cccc(OC[C@H](CCC(N)=O)NC(=O)[C@@H]4CC[C@@H]5CCN(C(C)=O)C[C@H](NC(=O)c6cc7cc(C(=O)P(=O)(O)O)ccc7[nH]6)C(=O)N54)c3F)no2)C(C)C)cc1 [I-7] | < 1 nM
C#Cc1ccc(CNC(=O)[C@@H]2C[C@@H](O)CN2C(=O)[C@@H](c2cc(OCCCc3cccc(OC[C@H](CCC(N)=O)NC(=O)[C@@H]4CC[C@@H]5CCN(C(C)=O)C[C@H](NC(=O)c6cc7cc(C(=O)P(=O)(O)O)ccc7[nH]6)C(=O)N54)c3Cl)no2)C(C)C)cc1 [I-3] | < 1 nM
C#Cc1ccc(CNC(=O)[C@@H]2C[C@@H](O)CN2C(=O)[C@@H](NC(=O)CCCc2cccc(OC[C@H](CCC(N)=O)NC(=O)[C@@H]3CC[C@@H]4CCN(C(C)=O)C[C@H](NC(=O)c5cc6cc(C(=O)P(=O)(O)O)ccc6[nH]5)C(=O)N43)c2C)C(C)(C)C)cc1 [I-14] | 1 to 10 nM
CC(=O)N1CC[C@H]2CC[C@@H](C(=O)N[C@@H](CCC(N)=O)COc3cccc(CCCOc4cc([C@H](C(=O)N5C[C@H](O)C[C@H]5C(=O)N[C@@H](C)c5ccc(-c6scnc6C)cc5)C(C)C)on4)c3Cl)N2C(=O)[C@@H](NC(=O)c2cc3cc(C(=O)P(=O)(O)O)ccc3[nH]2)C1 [I-23] | < 1 nM
C#Cc1ccc([C@H](C)NC(=O)[C@@H]2C[C@@H](O)CN2C(=O)[C@@H](NC(=O)CCCc2cccc(OC[C@H](CCC(N)=O)NC(=O)[C@@H]3CC[C@@H]4CCN(C(C)=O)C[C@H](NC(=O)c5cc6cc(C(=O)P(=O)(O)O)ccc6[nH]5)C(=O)N43)c2C)C(C)(C)C)cc1 [I-13] | 10 to 100 nM
CC(=O)N1CC[C@H]2CC[C@@H](C(=O)N[C@@H](CCC(N)=O)COc3cccc(CCCOc4cc([C@@H](C(=O)N5C[C@H](O)C[C@H]5C(=O)N[C@@H](C)c5ccc(-c6scnc6C)cc5)C(C)C)on4)c3Cl)N2C(=O)[C@@H](NC(=O)c2cc3cc(C(=O)P(=O)(O)O)ccc3[nH]2)C1 [I-2] | 10 to 100 nM
C#Cc1ccc([C@H](C)NC(=O)[C@@H]2C[C@@H](O)CN2C(=O)[C@@H](NC(=O)CCCc2cccc(OC[C@H](CCC(N)=O)NC(=O)[C@@H]3CC[C@@H]4CCN(C(C)=O)C[C@H](NC(=O)c5cc6cc(C(=O)P(=O)(O)O)ccc6[nH]5)C(=O)N43)c2F)C(C)(C)C)cc1 [I-8] | 1 to 10 nM
CC(=O)N1CC[C@@H]2CC[C@H](C(=O)N[C@@H](CCC(N)=O)COc3cccc(CCCCC(=O)N[C@H](C(=O)N4C[C@H](O)C[C@H]4C(=O)NCc4ccc(-c5scnc5C)cc4)C(C)(C)C)c3Cl)N2C(=O)[C@H](NC(=O)c2cc3cc(C(=O)P(=O)(O)O)ccc3[nH]2)C1 [I-24] | > 100 nM
C#Cc1ccc([C@H](C)NC(=O)[C@@H]2C[C@@H](O)CN2C(=O)[C@@H](c2cc(OCCCc3cccc(OC[C@H](CCC(N)=O)NC(=O)[C@@H]4CC[C@@H]5CCN(C(C)=O)C[C@H](NC(=O)c6cc7cc(C(=O)P(=O)(O)O)ccc7[nH]6)C(=O)N54)c3Cl)no2)C(C)C)cc1 [I-1] | < 1 nM
C#Cc1ccc([C@H](C)NC(=O)[C@@H]2C[C@@H](O)CN2C(=O)[C@@H](NC(=O)CCCc2cccc(OC[C@H](CCC(N)=O)NC(=O)[C@@H]3CC[C@@H]4CCN(C(C)=O)C[C@H](NC(=O)c5cc6cc(C(=O)P(=O)(O)O)ccc6[nH]5)C(=O)N43)c2Cl)C(C)(C)C)cc1 [I-4] | 1 to 10 nM
C#Cc1ccc(CNC(=O)[C@@H]2C[C@@H](O)CN2C(=O)[C@@H](NC(=O)CCCc2cccc(OC[C@H](CCC(N)=O)NC(=O)[C@@H]3CC[C@@H]4CCN(C(C)=O)C[C@H](NC(=O)c5cc6cc(C(=O)P(=O)(O)O)ccc6[nH]5)C(=O)N43)c2F)C(C)(C)C)cc1 [I-9] | 1 to 10 nM
CC(=O)N1CC[C@H]2CC[C@@H](C(=O)N[C@@H](CCC(N)=O)COc3cccc(CCCOc4cc([C@@H](C(=O)N5C[C@H](O)C[C@H]5C(=O)N[C@@H](C)c5ccc(-c6scnc6C)cc5)C(C)C)on4)c3C)N2C(=O)[C@@H](NC(=O)c2cc3cc(C(=O)P(=O)(O)O)ccc3[nH]2)C1 [I-20] | 10 to 100 nM
CC(=O)N1CC[C@H]2CC[C@@H](C(=O)N[C@@H](CCC(N)=O)COc3cccc(CCCOc4cc([C@H](C(=O)N5C[C@H](O)C[C@H]5C(=O)NCc5ccc(-c6scnc6C)cc5)C(C)C)on4)c3C)N2C(=O)[C@@H](NC(=O)c2cc3cc(C(=O)P(=O)(O)O)ccc3[nH]2)C1 [I-21] | < 1 nM
C#Cc1ccc(CNC(=O)[C@@H]2C[C@@H](O)CN2C(=O)[C@@H](NC(=O)CCCc2cccc(OC[C@H](CCC(N)=O)NC(=O)[C@@H]3CC[C@@H]4CCN(C(C)=O)C[C@H](NC(=O)c5cc6cc(C(=O)P(=O)(O)O)ccc6[nH]5)C(=O)N43)c2Cl)C(C)(C)C)cc1 [I-5] | 1 to 10 nM
CNC(=O)N1CC[C@H]2CC[C@@H](C(=O)N[C@@H](CCC(N)=O)COc3cccc(CCCC(=O)N[C@H](C(=O)N4C[C@H](O)C[C@H]4C(=O)N[C@@H](C)c4ccc(-c5scnc5C)cc4)C(C)(C)C)c3Cl)N2C(=O)[C@@H](NC(=O)c2cc3cc(C(F)(F)P(=O)(O)O)ccc3s2)C1 [I-26] | > 100 nM
CC(=O)N1CC[C@H]2CC[C@@H](C(=O)N[C@@H](CCC(N)=O)COc3cccc(CCCOc4cc([C@H](C(=O)N5C[C@H](O)C[C@H]5C(=O)N[C@@H](C)c5ccc(-c6scnc6C)cc5)C(C)C)on4)c3F)N2C(=O)[C@@H](NC(=O)c2cc3cc(C(=O)P(=O)(O)O)ccc3[nH]2)C1 [I-15] | < 1 nM
CCOP(=O)(OCC)C(=O)c1ccc2[nH]c(C(=O)N[C@H]3CN(C(C)=O)CC[C@H]4CC[C@@H](C(=O)N[C@@H](CCC(N)=O)COc5cccc(CCCOc6cc([C@H](C(=O)N7C[C@H](O)C[C@H]7C(=O)NCc7ccc(-c8scnc8C)cc7)C(C)C)on6)c5Cl)N4C3=O)cc2c1 [I-25] | 10 to 100 nM
CC(=O)N1CC[C@H]2CC[C@@H](C(=O)N[C@@H](CCC(N)=O)COc3cccc(CCCOc4cc([C@H](C(=O)N5C[C@H](O)C[C@H]5C(=O)NCc5ccc(-c6scnc6C)cc5)C(C)C)on4)c3Cl)N2C(=O)[C@@H](NC(=O)c2cc3cc(C(=O)P(=O)(O)O)ccc3[nH]2)C1 [I-27] | < 1 nM
CC(=O)N1CC[C@H]2CC[C@@H](C(=O)N[C@@H](CCC(N)=O)COc3cccc(CCCOc4cc([C@@H](C(=O)N5C[C@H](O)C[C@H]5C(=O)NCc5ccc(-c6scnc6C)cc5)C(C)C)on4)c3C)N2C(=O)[C@@H](NC(=O)c2cc3cc(C(=O)P(=O)(O)O)ccc3[nH]2)C1 [I-22] | 10 to 100 nM
